Where two headings read alike, the source gives them in different places.
Experiments:
[1] = Stability of stabilized vs. non-stabilized lansoprazole on storage (HPLC impurities and color); type: physicochemical; conditions: 40 °C, 75% humidity
Description: Chromatographic purity method of lansoprazole is detailed in the monograph in USP Forum Vol. 26 (5) [September-October 2000]. HPLC condition: Column C18 • Mobile phase: Gradient of triethylamine in water with acetonitrile • Flow: 0.8 ml/min • Detection: 285 nm Karl Fisher method for water determination is the USP method, 921. Ia, with the solvent: pyridine and ethylene glycol 9:1 as detailed in USP Forum Vol. 26 (5) [September-October 2000].

[2] = cited from earlier work
[3] = 1 month, lansoprazole of Example 2
[4] = 3 months, 'solvent free' lansoprazole of Example 3

Color after storage [1, 3] | LNP-SO2 (sulfone derivative) after storage [1, 3] [%] | Total impurities after storage [1, 3] [%] | Color after storage [1, 4] | LNP-SO2 (sulfone derivative) after storage [1, 4] [%] | LNPS (sulfide derivative) after storage [1, 4] [%] | Total impurities after storage [1, 4] [%] | LNPS (sulfide derivative) after storage [1, 3] [%] | Structure (SMILES) | Color after storage ([2]; 4 months at 40 °C and 75% room humidity) | Color after storage ([2]; 4 months at 40 °C, absence of humidity)
white | 0.03 | 0.05 | white | 0.02 | 0.03 | 0.08 |  | Cc1c(OCC(F)(F)F)ccnc1C[S+]([O-])c1nc2ccccc2[nH]1 (stereo not shown) [Lansoprazole stabilized with ammonia, 2-[[3-methyl-4-(2,2,2-trifluoroethoxy)-2-pyridyl]methyl]sulfinyl-1H benzimidazole] |  | 
 | 0.04 | 0.15 | Brownish | 0.04 | 0.06 | 0.31 | 0.03 | Cc1c(OCC(F)(F)F)ccnc1C[S+]([O-])c1nc2ccccc2[nH]1 (stereo not shown) [Lansoprazole not stabilized with ammonia, 2-[[3-methyl-4-(2,2,2-trifluoroethoxy)-2-pyridyl]methyl]sulfinyl-1H benzimidazole] |  | 
 |  |  |  |  |  |  |  | Cc1c(OCC(F)(F)F)ccnc1C[S+]([O-])c1nc2ccccc2[nH]1 (stereo not shown) [lansoprazole, (2-[[[3-methyl-4-(2,2,2-trifluoro-ethoxy)-2-pyridinyl]methyl]sulfinyl]-1H-benzimidazole)] | pale brown | pale yellowish brown

— US20050020638A1, “Method of stabilizing lansoprazole” (priority 2003, published 2005)
